Reference: patent US6794396B2, “Substituted pyridines useful for inhibiting cholesteryl ester transfer protein activity” (Pharmacia Corporation, priority 1998, dated 2004)
Read-outs that look alike come from different tables or passages of the source. Each block holds one compound with its values, some of them ahead of it.

Molecular target: T1, CETP (Homo sapiens, UniProt P11597)
T1 construct: made in house; host or cells: CHO cells (serum-free conditioned medium)
T1 sequence (P11597 18-493): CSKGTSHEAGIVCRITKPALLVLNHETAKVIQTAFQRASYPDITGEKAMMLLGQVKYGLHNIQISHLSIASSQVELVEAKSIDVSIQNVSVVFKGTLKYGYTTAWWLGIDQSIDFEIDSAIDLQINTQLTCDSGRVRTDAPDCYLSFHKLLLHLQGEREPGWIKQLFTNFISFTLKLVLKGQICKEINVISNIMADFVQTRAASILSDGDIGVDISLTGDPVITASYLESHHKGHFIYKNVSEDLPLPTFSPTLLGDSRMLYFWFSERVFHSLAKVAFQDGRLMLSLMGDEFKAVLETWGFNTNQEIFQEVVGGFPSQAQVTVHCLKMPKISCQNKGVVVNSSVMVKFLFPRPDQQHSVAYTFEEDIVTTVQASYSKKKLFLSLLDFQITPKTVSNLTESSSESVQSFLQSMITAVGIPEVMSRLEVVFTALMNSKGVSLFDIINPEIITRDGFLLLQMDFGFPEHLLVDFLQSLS
Assay: CETP activity in vitro: transfer of [3H]CE from HDL donor to LDL acceptor particles
Format: biochemical
Settings: for remaining activity at 100 µM: 2 h, read-out: % Transfer @ 100 μm
Method: The ability of compounds to inhibit CETP were assessed using an in vitro assay that measured the rate of transfer of radiolabeled cholesteryl ester ([^3H]CE) from HDL donor particles to LDL acceptor particles. Details of the assay are provided by Glenn et al. (“Quantification of Cholesteryl Ester Transfer Protein (CETP): A) CETP Activity and B) Immunochemical Assay of CETP Protein,” Meth. Enzymol., Glenn and Melton (Meth. Enzymol., 263, 339-351 (1996), which is incorporated herein by reference). CETP was obtained from the serum-free conditioned medium of CHO cells transfected with a cDNA for CETP (Wang, S. et al. J. Biol Chem. 267, 17487-17490 (1992), which is incorporated herein by reference).
To measure CETP activity, [^3H]CE-labeled HDL, LDL, CETP and assay buffer (50 mM tris(hydroxymethyl)amino-methane, pH 7.4; 150 mM sodium chloride; 2 mM ethylenediamine-tetraacetic acid; 1% bovine serum albumin) were incubated in a volume of 200 μl, for 2 hours at 37° C. in 96 well plates. LDL was differentially precipitated by the addition of 50 μl of 1% (w/v) dextran sulfate/0.5 M magnesium chloride, mixed by vortex, and incubated at room temperature for 10 minutes The solution (200μl) was transferred to a filter plate (Millipore). After filtration, the radioactivity present in the precipitated LDL was measured by liquid scintillation counting.
This value was defined as the IC50.

[1] = 50% inhibition of [3H]CE transfer from HDL to LDL, 2 hours at 37° C., read-out: IC50(μm)
[2] = IC50(μm), 50% inhibition of [3H]CE transfer from HDL to LDL, 2 hours at 37° C.
[3] = Table 7, compounds of formula T-7, read-out: IC50
[4] = Table 6, compounds of formula T-6, read-out: IC50

Structure (SMILES): COC(=O)c1c(C(F)F)nc(C(F)(F)F)c(CI)c1CC(C)C [Compound 32, Methyl 2-(Difluoromethyl)-5-(iodomethyl)-4-(2-methylpropyl)-6-(trifluoromethyl)-3-pyridinecarboxylate]
- IC50 [1]: 45 µM

Structure (SMILES): COC(=O)c1c(C(F)F)nc(C(F)(F)F)c(COC(=O)c2ccccc2)c1CC1CC1 [Compound 41, Methyl 5-(Benzoyloxymethyl)-2-(difluoromethyl)4-(cyclopropylmethyl)-6-(trifluoromethyl)-3-pyridinecarboxylate]
- IC50 [1]: 50 µM

Structure (SMILES): COC(=O)c1c(C(F)(F)F)nc(C(F)(F)F)c(C2=NCCS2)c1CC(C)C [Compound 12, Methyl 2,6-Bis(trifluoromethyl)-5-(4,5-dihydro-2-thiazoly)-4-(2-methylpropyl)-3-pyridinecarboxylate]
- IC50 [2]: 25 µM

Structure (SMILES): COC(=O)c1c(C(F)F)nc(C(F)(F)F)c(SC(C)=O)c1CC(C)C [Compound 149, Methyl 5-(Acetylthio)-2-(difluoromethyl)-4-(2-methylpropyl)-6-(trifluoromethyl)-3-pyridinecarboxylate]
- % transfer at 10 μm: 31^D %

Structure (SMILES): COC(=O)c1c(C(F)F)nc(C(F)(F)F)c(CSc2nc3ccc(C)cc3[nH]2)c1CC(C)C [Compound 209, Methyl 5-[(5-Methylbenzimidazol-2-yl)thiomethyl]-2-(difluoromethyl)-4-(2-methylpropyl)-6-(trifluoromethyl)-3-pyridinecarboxylate]
- IC50 [4]: 10 µM

Structure (SMILES): COC(=O)c1c(C(F)F)nc(C(F)(F)F)c(N=S=O)c1CC(C)C [Compound 1]
- IC50 [2]: 2 µM

Structure (SMILES): COC(=O)c1c(C(F)F)nc(C(F)(F)F)c(C#C[Si](C)(C)C)c1CC(C)C [Compound 19, Methyl 2-(Difluoromethyl)-4-(2-methylpropyl)-6-(trifluoromethyl)-5-[(trimethylsilyl)ethynyl]-3-pyridinedicarboxylate]
- IC50 [2]: 35 µM

Structure (SMILES): COC(=O)c1c(C(F)F)nc(C(F)(F)F)c(N=COCC2CO2)c1CC(C)C (stereo not shown) [Compound 30]
- IC50 [2]: 40 µM

Structure (SMILES): COC(=O)c1c(C(F)F)nc(C(F)(F)F)c(SCc2cccc(Br)c2)c1CC(C)C [Compound 229]
- IC50 (IC50, Table 7, compounds of formula T-7): 50 µM

Structure (SMILES): CCOC(=O)c1c(C(F)(F)F)ncc(C(=O)OC(C)C)c1O [Compound 101, 3-Ethyl 5-Isopropyl 4-hydroxy-2-(trifluoromethyl)-3,5-pyridinedicarboxylate]
- remaining activity at 100 µM: 71%

Structure (SMILES): COC(=O)c1c(C(F)F)nc(C(F)(F)F)c(C(O)c2ccco2)c1CC(C)C (stereo not shown) [Compound 13, Methyl 2-(difluoromethyl)-5-(1-hydroxyl-furylmethyl)-4-(2-methylpropyl)-6-(trifluoromethyl)-3-pyridinecarboxylate]
- IC50 [1]: 30 µM

Structure (SMILES): COC(=O)c1c(C(F)F)nc(C(F)(F)F)c(CSc2ccc(NC(C)=O)cc2)c1CC(C)C [Compound 204, Methyl 5-[(4-(Acetylamino)phenyl)thiomethyl]-2-(difluoromethyl)-4-(2-methylpropyl)-6-(trifluoromethyl)-3-pyridinecarboxylate]
- CE transferred (@ 100 μm, footnotes A and B of Table 6): ^B80% CE transferred @ 100 μm.
- IC50 [4]: > 100 µM

Structure (SMILES): COC(=O)c1c(C(F)F)nc(C(F)(F)F)c(SCc2cccc([N+](=O)[O-])c2)c1CC(C)C [Compound 230]
- IC50 [3]: 50 µM

Structure (SMILES): Cc1c(C(F)(F)F)ncc(C(=O)O)c1Sc1ccc(C(C)C)cc1 [Compound 126, 4-(4-Isopropylphenylthio)-5-methyl-6-(trifluoromethyl)-3-pyridinecarboxylic Acid]
- remaining activity at 100 µM: 90%

Structure (SMILES): COC(=O)c1c(C(F)F)nc(C(F)(F)F)c(C(=O)Sc2ccccc2C(C)C)c1CC(C)C [Compound 157, Methyl 2-(Difluoromethyl)-4-(2-methylpropyl)-5-{[(2-isopropylphenyl)thio]carbonyl}-6-(trifluoromethyl)-3-pyridinecarboxylate]
- IC50 [2]: 60 µM

Structure (SMILES): COC(=O)c1c(C(F)F)nc(C(F)(F)F)c(SC(C)OC)c1CC(C)C (stereo not shown) [Compound 147, Methyl 2-(Difluoromethyl)-4-(2-methylpropyl)-5-(1-methoxyethylthio)-6-(trifluoromethyl)-3-pyridinecarboxylate]
- % transfer at 10 μm: 15^D %

Structure (SMILES): CCOC(=O)c1c(C(F)(F)F)nc(C(F)F)c(NC(=O)Nc2c(C(F)F)nc(C(F)(F)F)c(C(=O)OCC)c2CC)c1CC [Compound 48]
- IC50 [1]: 50 µM

Structure (SMILES): COC(=O)c1c(C(F)F)nc(C(F)(F)F)c(SCc2ccc(OC(F)(F)F)cc2)c1CC(C)C [Compound 235]
- IC50 [3]: 30 µM

Structure (SMILES): COC(=O)c1c(C(F)F)nc(C(F)(F)F)c(C(=O)SC(C)C)c1C1CCC1 [Compound 14, Methyl 2-(Difluoromethyl)-5-[(i-propylthio)carbonyl]-4-(cyclobutyl)-6-(trifluoromethyl)-3-pyridinecarboxylate]
- IC50 [2]: 30 µM

Structure (SMILES): COC(=O)c1c(C(F)F)nc(C(F)(F)F)c(CSc2c(F)c(F)cc(F)c2F)c1CC(C)C [Compound 186, Methyl 5-[(2,3,5,6-Tetrafluorophenyl)thiomethyl]-2-(difluoromethyl)-4-(2-methylpropyl)-6-(trifluoromethyl)-3-pyridinecarboxylate]
- IC50 [4]: 50 µM

Structure (SMILES): COC(=O)c1c(C(F)F)nc(C(F)(F)F)c(CSc2ncccn2)c1CC(C)C [Compound 203, Methyl 5-[(Pyrimidin-2-yl)thiomethyl]-2-(difluoromethyl)-4-(2-methylpropyl)-6-(trifluoromethyl)-3-pyridinecarboxylate]
- IC50 [4]: 70 µM

Structure (SMILES): COC(=O)c1c(C(F)F)nc(C(F)(F)F)c(CSc2cccc(Br)c2)c1CC(C)C [Compound 184, Methyl 5-[(3-Bromophenyl)thiomethyl]-2-(difluoromethyl)-4-(2-methylpropyl)-6-(trifluoromethyl)-3-pyridinecarboxylate]
- IC50 [4]: 30 µM

Structure (SMILES): CCOC(=O)c1cnc(C(F)(F)F)c(Oc2ccccc2)c1O [Compound 109, Ethyl 4-Hydroxy-5-phenoxy-6-(trifluoromethyl)-3-pyridinecarboxylate]
- remaining activity at 100 µM: 76%

Structure (SMILES): CCOC(=O)c1c(C(F)F)nc(C(F)(F)F)c(C(=O)OCC)c1SC(C)(C)C [Compound 39, Diethyl 2-(Difluoromethyl)-4-(t-butylthio)-6-(trifluoromethyl)-3,5-pyridine-dicarboxylate]
- IC50 [2]: 50 µM

Structure (SMILES): CCOC(=O)c1c(C(F)(F)F)nc(C(F)(F)F)c(C)c1OC(C)C [Compound 53, Ethyl 2,6-Bis(trifluoromethyl)-4-(isopropoxy)-5-methyl-3-pyridinecarboxylate]
- IC50 [1]: 50 µM

Structure (SMILES): COC(=O)c1c(C(F)F)nc(C(F)(F)F)c(N=C=S)c1CC(C)C [Compound 18]
- IC50 [1]: 35 µM

Other lines, results leading:

- IC50 (Table 8, read-out: IC50): 8 µM
Structure (SMILES): CC(C)c1ccc(Cc2c(C(F)F)nc(C(F)(F)F)c(C=O)c2-c2ccccc2)cc1 [Compound 274]

- IC50 [3]: 45 µM
Structure (SMILES): COC(=O)c1c(C(F)F)nc(C(F)(F)F)c(SCc2ccccc2Br)c1CC(C)C [Compound 239]

- IC50 (Table 8, read-out: IC50): 38.7 µM
Structure (SMILES): CC(C)CC(O)c1c(C(F)F)nc(C(F)(F)F)c(C(F)c2ccc(C(F)(F)F)cc2)c1-c1ccc(F)cc1 (stereo not shown) [Compound 283]

- IC50 (Table 8, read-out: IC50): 16.2 µM
Structure (SMILES): O=C(c1ccc(C(F)(F)F)cc1)c1c(C(F)(F)F)nc(C(F)F)c(CO)c1-c1ccc(F)cc1 [Compound 292]

- IC50 (Table 8, read-out: IC50): 60 µM
Structure (SMILES): CC(C)c1ccc(C(F)c2c(C(F)(F)F)nc(C(F)F)c(CO)c2-c2ccccc2)cc1 (stereo not shown) [Compound 265]

- IC50 (Table 8, read-out: IC50): 60 µM
Structure (SMILES): O=C(c1ccc2ccccc2c1)c1c(C(F)(F)F)nc(C(F)F)c(CO)c1-c1ccccc1 [Compound 259]

- IC50 (Table 8, read-out: IC50): 55 µM
Structure (SMILES): CCOC(=O)c1c(C(F)(F)F)nc(C(F)F)c(C(F)c2ccc(Cl)cc2)c1-c1ccc(F)cc1 (stereo not shown) [Compound 254]

- IC50 (Table 8, read-out: IC50): > 100 µM
Structure (SMILES): OCc1c(C(F)(F)F)nc(C(F)F)c(C(O)c2ccc3ccccc3c2)c1-c1ccccc1 (stereo not shown) [Compound 280]

- IC50 (Table 8, read-out: IC50): 80 µM
Structure (SMILES): CCOC(=O)c1c(C(F)(F)F)nc(C(F)F)c(C(O)c2ccc3ccccc3c2)c1-c1ccccc1 (stereo not shown) [Compound 278]

- IC50 (Table 8, read-out: IC50): > 100 µM
Structure (SMILES): OCc1c(C(F)F)nc(C(F)(F)F)c(C(O)c2ccc(Cl)cc2)c1-c1ccccc1 (stereo not shown) [Compound 269]

- IC50 (Table 8, read-out: IC50): 4.5 µM
Structure (SMILES): O=Cc1c(C(F)F)nc(C(F)(F)F)c(COCc2ccccc2)c1-c1ccc(F)cc1 [Compound 252]

- IC50 (Table 8, read-out: IC50): 40 µM
Structure (SMILES): CC(C)c1ccc(C(=O)c2c(C(F)(F)F)nc(C(F)F)c(CO)c2-c2ccccc2)cc1 [Compound 263]

- IC50 (Table 8, read-out: IC50): 55.3 µM
Structure (SMILES): C=CC(OC(=O)c1ccccc1)c1c(C(F)F)nc(C(F)(F)F)c(C(=O)c2ccc(OCC)cc2)c1-c1ccccc1 (stereo not shown) [Compound 289]
